Assay results taken from US10344276B2, “Diagnostic and treatment for chronic and acute phase myeloid leukemia” (Duke University, priority 2009, dated 2019).

Legend:
[1] = test system: Msi2 transcript; assay: Msi2 knockdown measured by realtime RT-PCR; format: cell-based, mouse; settings: Lin− cells from NUP98-HOXA9/BCR-ABL blast crisis leukemias; compared with shLuc control
Method: RNA was isolated using RNAqueous-Micro (Ambion), levels were equalized, and RNA was converted to cDNA using Superscript II reverse transcriptase (Invitrogen). Quantitative real time PCRs were performed using an iCycler (BioRad) by mixing cDNAs, iQ SYBR Green Supermix (BioRad) and gene specific primers. Results were normalized to the level of beta-2-microglobulin (B2m). Primer sequences are as follows: Numb-F, […] (SEQ ID NO: 1); Numb-R, […] (SEQ ID NO: 2); Msi1-F, […] (SEQ ID NO: 3); Msi1-R, […] (SEQ ID NO: 4); Msi2-F, […] (SEQ ID NO: 5); Msi2-R, […] (SEQ ID NO: 6); B2m-F, […] (SEQ ID NO: 7); B2m-R, […] (SEQ ID NO: 8).
(§1) To determine if inhibiting Msi2 could impact the growth of established CML, and to rule out the possibility that the reduced incidence of leukemia in Gt mutants was due to developmental defects and examine if Msi2 knockdown affects AML maintenance, Msi expression was targeted using an alternate shRNA approach. A lineage-negative population was sorted from full blown AML cells, which contains AML stem cells. Lin− cells from NUP98-HOXA9/BCR-ABL-induced blast crisis leukemias were infected with either an shRNA retrovirus targeting Msi2 (shMsi; SEQ ID NO: 9) or firefly luciferase (shLuc; SEQ ID NO: 10) as a negative control and resorted, and Msi2 expression was analyzed by realtime RT-PCR. […] Error bars represent s.e.m. of triplicate PCRs (**p<0.01).

[2] = test system: blast crisis CML (AML) cells; assay: Colony forming assay in methylcellulose media after Msi2 shRNA delivery; format: cell-based, mouse
Method: Lineage negative, NUP98-HOXA9-YFP positive cells from AML were sorted and infected retrovirally with either Vector-IRES-GFP or Numb-IRES-GFP. After 48 hours of infection, cells were sorted and serially plated on complete methylcellulose medium (Methocult GF M3434 from StemCell Technologies).
as §1
As a control, shRNA against LacZ was used. Error bars represent s.e.m. of triplicate PCRs (**p<0.01). […] Error bars represent s.e.m. of triplicate assay wells (**p<0.01). […] Error bars represent s.e.m. of triplicate PCRs (**p<0.01).

[3] = test system: blast crisis CML / AML; assay: Transplantation of shRNA-infected blast crisis CML/AML cells into irradiated mice; format: in vivo
From the text: Mouse models of CML were generated by transducing bone marrow stem and progenitor cells with retroviruses carrying BCR-ABL (chronic phase), or BCR-ABL and NUP98-HOXA9 (blast crisis phase) and transplanted into irradiated recipient mice. The development of CML was confirmed by flow cytometry and histopathology. Transgenic Notch reporter (TNR), Rag1−/−, and C57BL6/J were used as transplant donors, and C57Bl6/J CD45.1 and CD1 mice were used as transplant recipients. All mice were 8-12 weeks of age. Mice were bred and maintained on acidified water after transplantation in the animal care facility at Duke University Medical Center. All live animal experiments were performed according to protocols approved by the Duke University Institutional Animal Care and Use Committee. For Msi2 knockdown experiments, lineage negative blast crisis CML cells were infected with Msi2 or control Luciferase shRNA retroviral constructs and leukemia incidence monitored.
Bone marrow c-Kit+ or KLS cells from C57BL6/J or TNR mice were enriched and cultured overnight in X-vivo15 with 10% FBS, 50 μM 2-mercaptoethanol, 100 ng/mL SCF, and 20 ng/mL TPO in a 96 well U-bottom plate or 6 well plate. Subsequently, cells were infected with MSCV-BCR-ABL-IRES-YFP (or CFP) to generate CML, or MSCV-BCR-ABL-IRES-YFP (or CFP) and MSCV-NUP98-HOXA9-IRES-YFP (or NGFR) to generate AML. Cells were harvested 48 hours after infection and transplanted retro-orbitally into groups of 4-7 recipient mice. Recipients were lethally irradiated (10 Gy) for CML, and sublethally irradiated (7 Gy) for AML. For Numb overexpression, cells were infected with either MSCV-Numb-IRES-GFP (or hCD2) or MSCV-IRES-GFP (or hCD2) along with MSCV-BCR-ABL-IRES-YFP (or CFP) and MSCV-NUP98-HOXA9-IRES-NGFR (or YFP) and 20,000 to 100,000 sorted infected cells were transplanted per mouse. For secondary transplantation, cells from primary transplanted mice were sorted for either MSCV-Numb-IRES-GFP and MSCV-NUP98-HOXA9-YFP or MSCV-IRES-GFP and MSCV-NUP98-HOXA9-YFP, and 7,000 to 8,000 cells were transplanted per mouse. For ICN experiments, cells were infected with MSCV-ICN-IRES-CFP and MSCV-BCR-ABL-GFP, MSCV-ICN-IRES-CFP and MSCV-IRES-GFP, or MSCV-BCR-ABL-IRES-GFP and MSCV-IRES-CFP, and 10,000 to 20,000 KLS-derived or 200,000 to 500,000 c-kit+-derived sorted cells were transplanted per mouse. For the TNR mouse model, cells were infected with MSCV-BCR-ABL-IRES-YFP (or CFP) to generate CML or MSCV-BCR-ABL-IRES-YFP (or CFP) and MSCV-NUP98-HOXA9-IRES-NGFR to generate AML. 10,000 to 80,000 unsorted cells were transplanted per mouse. After transplantation, recipient mice were subsequently maintained on antibiotic water (sulfamethoxazole and trimethoprim) and evaluated daily for signs of morbidity, weight loss, failure to thrive, and splenomegaly. Premorbid animals were sacrificed by CO2 asphyxiation followed by cervical dislocation. Subsequently relevant tissues were harvested and analyzed by flow cytometry and histopathology.
Data shown is representative of two to three independent experiments.
The impact of Msi2 loss in AML propagation in vivo was also tested. Lin-negative cells from full blown AML were transduced either with an Msi2 shRNA retrovirus or luciferase shRNA virus, and the cells were transplanted into sublethally-irradiated mice. 11 of 13 mice transplanted with control knockdown AML became sick by 1 month post transplant.
Serial transplants were also done to test the presence of leukemia-initiating ability of control and Msi2 knockdown AML cells from the mice who suffered from leukemia.

For “shMsi: shRNA retrovirus targeting Msi2, SEQ ID NO: 9, 5′-CCCAGATAGCCTTAGAGACTAT-3′”, the “reduction in Msi2 transcript levels” value [1] was 75-90%, the “colony growth in vitro” value ([2]; established blast crisis CML cells, vs control shRNA) was “reduced colony growth in vitro” and the “reduction in the number of colonies formed” value ([2]; methylcellulose media, Msi2 knockdown AML cells) was 50-70%. The “AML incidence in serial transplants” value ([3]; 3000 or 10,000 cells transplanted) was “loss in AML incidence”, the “mice surviving beyond 1 month” value ([3]; Lin-negative AML cells transduced, sublethally irradiated mice, 11 of 13 control mice sick by 1 month) was “more than half” and the “differentiation of leukemias that occurred” value ([3]; Wright's stain of leukemic cells, primary transplant) was “more differentiated”. The “ability to propagate disease (mice succumbing)” value ([3]; mice transplanted with Lin− cells from primary shRNA expressing leukemias, control 87%) was 25%, the “disease incidence in vivo (survival curve)” value ([3]; primary transplant of established blast crisis CML cells, vs shLuc) was “reduced disease incidence in vivo” and the “transplanted leukemic cells in peripheral blood of surviving mice” value ([3]; surviving mice) was “no detectable levels of transplanted leukemic cells”.
